Experimental data published in publication PMC10303920, “Competition between skin antimicrobial peptides and commensal bacteria in type 2 inflammation enables survival of S. aureus” (Cell reports, 2023).
No end group written: not given here.

Columns and labels:
[1] = test system: AMP gene expression at wound edge; assay: AMP response to partial-thickness skin wounds of mice treated by MC903; assay type: in vivo, Balb/c mice; settings: MC903 or vehicle for 14 days, scratched by 18 gauge needle, biopsy at wound edge after 48 hours; Figure S3
Text: All experiments involving live animals were done with the approval of the Institutional Animal Care and Use Guidelines of the University of California, San Diego (Protocol number: S09074). To investigate influences of distinct type of skin inflammation on the microbial community on the skin surface, we employed Th2 and Th17 inflammation models using mixed sex of Il4ra^−/− Balb/c (Jackson Laboratory, ME), Camp^−/− Balb/c,[4] Flg^ft/ft Balb/c or WT Balb/c mice (Jackson Laboratory) (6–8 weeks). Mice were housed under a specific pathogen-free condition with 12hr light/12hr dark cycle at 20–22°C and 30–70% humidity. Mice were randomly selected, the back skin was shaved, treated with depilatory cream, rinsed with water, cleaned with alcohol swab twice. To induce Th2 inflammation, MC903 (50μL of 90μM in ethanol) was applied to the back skin of WT, Il4ra^−/− or Camp^−/− mice every day for 14 days. […] The dorsal skin was disinfected with alcohol swabs twice, applied with a 6-mm TSB agar disc containing 1 × 10^6 CFU of S. aureus (ATCC35556), and covered with Tegaderm wound dressing film for initial 24 h for quantitative bacterial application. […] The mRNA expression of each gene was evaluated by qPCR and normalized to GAPDH expression (key resources table). page 4: Figure S3. […] P-value (*P<0.05 and **P<0.01) was calculated by two-tailed unpaired parametric t-test. […]

S. aureus (ATCC35556) [2] = assay: Survival of S. aureus on mouse skin in inflammation models; assay type: in vivo, Balb/c mice
Text: All experiments involving live animals were done with the approval of the Institutional Animal Care and Use Guidelines of the University of California, San Diego (Protocol number: S09074). To investigate influences of distinct type of skin inflammation on the microbial community on the skin surface, we employed Th2 and Th17 inflammation models using mixed sex of Il4ra^−/− Balb/c (Jackson Laboratory, ME), Camp^−/− Balb/c,[4] Flg^ft/ft Balb/c or WT Balb/c mice (Jackson Laboratory) (6–8 weeks). Mice were housed under a specific pathogen-free condition with 12hr light/12hr dark cycle at 20–22°C and 30–70% humidity. Mice were randomly selected, the back skin was shaved, treated with depilatory cream, rinsed with water, cleaned with alcohol swab twice. To induce Th2 inflammation, MC903 (50μL of 90μM in ethanol) was applied to the back skin of WT, Il4ra^−/− or Camp^−/− mice every day for 14 days. Control mice received equal volume of ethanol. Alternatively, a sterile patch (2 × 2cm) with OVA solution (100 μg/100 μL PBS) or PBS was placed on tape-stripped dorsal skin of Flg^ft/ft Balb/c mice (6–8 weeks, mixed sex) and covered with Tegaderm wound dressing film for 8 days (the patch was replaced every 2 days). Mice received 3 times of 8-day OVA exposures by 2-week intervals. […] The dorsal skin was disinfected with alcohol swabs twice, applied with a 6-mm TSB agar disc containing 1 × 10^6 CFU of S. aureus (ATCC35556), and covered with Tegaderm wound dressing film for initial 24 h for quantitative bacterial application. […]
Bacteria were cultured in tryptic soy broth (TSB) at 37°C overnight, washed with PBS, and re-suspended in PBS at 1 × 10^6 CFU/5μL. […] The entire dorsal skin was then covered with wound dressing film for quantitative bacterial application and to avoid contamination.[18] […]
Survival of S. aureus and CoNS were measured on Baird-Parker agar for S. aureus or mannitol salt agar with egg yolk for total Staphylococcus species using easySpiral automatic diluter plater with exponential mode or circle mode and automatic colony counter (Interscience Inc., France). […]

[3] = test system: Il17a, Il4, Il13, Camp, Defb14, Defb4 expression; assay: qPCR of cytokine and AMP genes in mouse skin after topical steroid; assay type: in vivo, Balb/c WT mice; settings: topical triamcinolone
Procedure: (§1) Back skin of Balb/c WT mice (8 weeks, female) were shaved and treated with MC903 as described above. After decontaminating the skin with alcohol swab twice, S. aureus (ATCC35556, 1 × 10^6 CFU) were applied with a TSB agar disc and whole back skin was covered with Tegaderm wound dressing film for 24 h. Tegaderm and the TSB disc were removed, and then 0.1% Triamcinolone (Perrigo) or Vaseline (50μg) were applied twice on back skin at 24 and 32 h after S. aureus were applied. Skin swab and biopsy was ob tained to measure S. aureus survival and immune response of the skin, respectively, at 48 h after bacteria application.
To determine expression of mRNA for Il4, Il13, Il17a, Tslp, Defb4, […] or Camp, 6mm punch biopsy was obtained from the mouse back skin. Skin biopsy was stored in 1mL of RNAlater solution at −80°C. Total RNA was extracted with PureLink RNA extraction kit (ThermoScientific Fisher) and one μg of total RNA was reversely transcribed with VERSO cDNA synthesis kit (ThermoScientific Fisher). Predeveloped qPCR assay primer sets (IDT oligo, listed in key resources table) were used for analyzing the expressions of these genes. The mRNA expression of each gene was evaluated by qPCR and normalized to GAPDH expression (key resources table).

S. aureus (ATCC35556) [4] = assay: Survival of S. aureus on mouse skin after topical steroid; assay type: in vivo, Balb/c WT mice; settings: 0.1% triamcinolone topical at 24 and 32 h after S. aureus, read at 48 h; Figure 2L
Procedure: as §1
Survival of S. aureus and CoNS were measured on Baird-Parker agar for S. aureus or mannitol salt agar with egg yolk for total Staphylococcus species using easySpiral automatic diluter plater with exponential mode or circle mode and automatic colony counter (Interscience Inc., France). To determine total CoNS survival, CFUs on mannitol salt agar were subtracted by CFUs on Baird-Parker agar. To distinguish ShA9-WT and ShA9-ΔLanti mutant, CoNS colonies with pink color without halo were randomly picked from mannitol salt agar plate and conducted colony PCR with gene specific primers for ShA9-lantibiotic-α (key resources table).

ShA9-WT and ShA9-ΔLanti = assay: Growth inhibition of ShA9-WT and ShA9-ΔLanti by human and murine AMPs (OD600); assay type: cell-based, Staphylococcus hominis; settings: 90% RPMI/10% TSB, 30°C, 24 h, mean of duplicate technical replicates, Figure 4E
Procedure: Staphylococcus strains collected from normal skin from healthy subjects or lesional skin from AD patients were cultured in TSB overnight. Bacteria were washed with PBS and resuspended to 90% RPMI media and 10% TSB. Bacteria (1 × 10^5 CFU/mL) were incu bated with or without human AMPs (LL-37, hBD-2, hBD-3) or mouse cathelin-related AMP (CRAMP) in 90% RPMI media and 10% TSB (100 μL) in each well of a 96-well plate at 30°C for 24 h. Bacterial growth was assessed by measuring OD600. Minimal inhibitory concentration was defined as the lowest concentration which prevent visible bacterial growth (<5% of OD600 value of the con trol well).

C=C1/C(=C\C=C2/CCC[C@]3(C)[C@@H]([C@H](C)/C=C/[C@@H](O)C4CC4)CC[C@@H]23)C[C@@H](O)C[C@@H]1O [MC903]
AMP response to skin wounding after MC903 [1]: suppressed
S. aureus survival on the skin after MC903 pretreatment relative to untreated mice (S. aureus (ATCC35556) [2]; WT Balb/c mice, MC903 50 μL of 90 μM daily for 14 days, S. aureus 1 × 10^6 CFU for 48 h, Figure S1G): increased

CC(C)Cn1cnc2c(N)nc3ccccc3c21 [imiquimod]
Protection against S. aureus on imiquimod-treated skin (S. aureus (ATCC35556) [2]; Flg^ft/ft mice, 5% imiquimod cream daily for 7 days, S. aureus for 48 hours, Figure S6): enhanced protection against S. aureus

C[C@]12C=CC(=O)C=C1CC[C@H]1[C@@H]3C[C@@H](O)[C@](O)(C(=O)CO)[C@@]3(C)C[C@H](O)[C@@]12F [triamcinolone]
Il17a expression, healthy skin after S. aureus exposure ([3]; no MC903, Figure 2F): decreased
Camp expression, healthy skin after S. aureus exposure ([3]; no MC903, Figure 2I): decreased
Defb14 expression, healthy skin after S. aureus exposure ([3]; no MC903, Figure 2J): decreased
Il4 expression, skin with Th2 inflammation (MC903 and S. aureus) ([3]; Figure 2G): decreased
Il13 expression, skin with Th2 inflammation (MC903 and S. aureus) ([3]; Figure 2H): decreased
Camp expression, skin with Th2 inflammation (MC903 and S. aureus) ([3]; Figure 2I): increased
Defb14 expression, skin with Th2 inflammation (MC903 and S. aureus) ([3]; Figure 2J): increased
Defb4 expression, skin with Th2 inflammation (MC903 and S. aureus) ([3]; Figure 2K): increased
Survival of S. aureus on MC903-pretreated mouse skin (S. aureus (ATCC35556) [4]): decreased survival of S. aureus

CRAMP (GLL-33)
Sensitivity of ShA9-WT to the AMP compared with ShA9-ΔLanti (growth inhibition) (ShA9-WT and ShA9-ΔLanti): more sensitive

human beta-defensin 2 [hBD-2]
Sensitivity of ShA9-WT to the AMP compared with ShA9-ΔLanti (growth inhibition) (ShA9-WT and ShA9-ΔLanti): more sensitive

human beta-defensin 3 (GIINTLQKYYCRVRGGRCAVLSCLPKEEQIGKCSTRGRKCCRRKK; ends and bridges not checked; cysteine pairing not given here; UniProt P81534 23-67, looked up) [hBD-3, human β-defensin, synthetic AMP (Peptide International)]
Sensitivity of ShA9-WT to the AMP compared with ShA9-ΔLanti (growth inhibition) (ShA9-WT and ShA9-ΔLanti): more sensitive

B1: ovalbumin (protein, UniProt P01012 2-386, looked up)
Ovalbumin: GSIGAASMEFCFDVFKELKVHHANENIFYCPIAIMSALAMVYLGAKDSTRTQINKVVRFDKLPGFGDSIEAQCGTSVNVHSSLRDILNQITKPNDVYSFSLASRLYAEERYPILPEYLQCVKELYRGGLEPINFQTAADQARELINSWVESQTNGIIRNVLQPSSVDSQTAMVLVNAIVFKGLWEKAFKDEDTQAMPFRVTEQESKPVQMMYQIGLFRVASMASEKMKILELPFASGTMSMLVLLPDEVSGLEQLESIINFEKLTEWTSSNVMEERKIKVYLPRMKMEEKYNLTSVLMAMGITDVFSSSANLSGISSAESLKISQAVHAAHAEINEAGREVVGSAEAGVDAASVSEEFRADHPFLFCIKHIATNAVLFFGRCVSP
notes: ovalbumin used for epicutaneous sensitization to induce Th2 inflammation
S. aureus survival on the skin after OVA sensitization relative to untreated mice (S. aureus (ATCC35556) [2]; Flg^ft/ft Balb/c mice, 100 μg OVA in 100 μL PBS, 3 exposure cycles, S. aureus 1 × 10^6 CFU for 48 h, Figure S1M): increased colonization by S. aureus
